Series [1] concerns Staphylococcus aureus Oxford. Nature of the series: MIC by agar-dilution, Staphylococcus aureus Oxford. The format is cell-based. To be noted: 37° C., 24 hours. The method, then:
(§1) The following results were obtained on a standard in-vitro test system. The activity is described in terms of the minimum inhibitory concentration (MIC) determined by the agar-dilution technique with an inoculum size of 10^4 CFU/spot. Typically, compounds are active in the range 0.01 to 256 μg/ml.
(§2) Staphylococci were tested on agar, using an inoculum of 10^4 CFU/spot and an incubation temperature of 37° C. for 24 hours—standard test conditions for the expression of methicillin resistance.

The test system of series [2] is Staphylococcus aureus Novb. Res (Novobiocin resistant). The series can be described thus: MIC by agar-dilution, Staphylococcus aureus Novb. Res. To be noted: 37° C., 24 hours. The format is cell-based. The method, then:
as §1, §2

Series [3] deals with Staphylococcus aureus MRQR (methicillin and quinolone resistant). The series can be described thus: MIC by agar-dilution, Staphylococcus aureus MRQR. The format is cell-based. To be noted: 37° C., 24 hours. As for the experimental part:
as §1, §2

Series [4] concerns Coagulase Negative Staphylococci MS (methicillin sensitive). Nature of the series: MIC by agar-dilution, Coagulase Negative Staphylococci MS. The format is cell-based. To be noted: 37° C., 24 hours. As for the experimental part: as §1, §2
Series [5] relates to Coagulase Negative Staphylococci MR (methicillin resistant). The series can be described thus: MIC by agar-dilution, Coagulase Negative Staphylococci MR. To be noted: 37° C., 24 hours. The format is cell-based. As for the experimental part: as §1, §2
Series [6] has as its system Streptococcus pyogenes C203. The series can be described thus: MIC by agar-dilution, Streptococcus pyogenes C203. The format is cell-based. To be noted: agar with 5% defibrinated horse blood, 5% carbon dioxide, 48 hours. The method, then: (§3) The following results were obtained on a standard in-vitro test system. The activity is described in terms of the minimum inhibitory concentration (MIC) determined by the agar-dilution technique with an inoculum size of 10^4 CFU/spot. Typically, compounds are active in the range 0.01 to 256 μg/ml. Streptococci and enterococci were tested on agar supplemented with 5% defibrinated horse blood, an inoculum of 10^4 CFU/spot and an incubation temperature of 37° C. in an atmosphere of 5% carbon dioxide for 48 hours—blood is required for the growth of some of the test organisms. Fastidious Gram negative organisms were tested in Mueller-Hinton broth, supplemented with hemin and NAD, grown aerobically for 24 hours at 37° C., and with an innoculum of 5×10^4 CFU/well.

Series [7] concerns Enterococcus faecalis. The series can be described thus: MIC by agar-dilution, Enterococcus faecalis. It is filed as cell-based. To be noted: agar with 5% defibrinated horse blood, 5% carbon dioxide, 48 hours. The method, then:
as §3

Series [8] deals with Bacillus subtilis. The series can be described thus: MIC by agar-dilution, Bacillus subtilis. The format is cell-based. The method, then:
as §1

For series [9], the system named is Haemophilus influenzae ARC446. Nature of the series: MIC, Haemophilus influenzae ARC446 (Mueller-Hinton broth). It is filed as cell-based. To be noted: Mueller-Hinton broth with hemin and NAD, 24 hours, 37° C. As for the experimental part: as §3
In series [10] the test system is Moraxella catarrhalis ARC445. The series can be described thus: MIC, Moraxella catarrhalis ARC445 (Mueller-Hinton broth). It is filed as cell-based. To be noted: Mueller-Hinton broth with hemin and NAD, 24 hours, 37° C. As for the experimental part: as §3

Values after ≈ are worked out from the molar mass of the structure shown.

In turn, `CSc1ccc(N2C[C@H](Cn3cccn3)OC2=O)cc1` [Example 43, (5R)-3-(4-Methylthiophenyl)-5-(pyrazol-1-ylmethyl)oxazolidin-2-one] yielded a melting point of 72 to 73 °C.

As to `CC(C)(C)c1ccc(N2C[C@H](Cn3ccnn3)OC2=O)cc1` [Example 41, (5R)-3-(4-t-Butylphenyl)-5-(1,2,3-triazol-1-ylmethyl)oxazolidin-2-one], the melting point was in the range of 140 to 142 °C.

As for `O=C1O[C@@H](Cn2ccnn2)CN1c1cc(F)c(C2=CCS(=O)(=O)CC2)c(F)c1` [Example 44a, (5R)-3-(3,5-Difluoro-4-(3,6-dihydro-1,1-dioxo-2H-thiopyran-4-yl)phenyl)-5-(1,2,3-triazol-1-ylmethyl)oxazolidin-2-one], the MIC was 0.125 µg/mL (≈ 0.305 µM) in [1]; 0.25 µg/mL (≈ 0.609 µM) in series [2]; 0.25 µg/mL (≈ 0.609 µM) in [3]; 0.06 µg/mL (≈ 0.146 µM) in series [4]; 0.13 µg/mL (≈ 0.317 µM) in [5]; 0.25 µg/mL (≈ 0.609 µM) in series [6]. Also, the MIC was found to be 0.25 µg/mL (≈ 0.609 µM) in series [7], 0.25 µg/mL (≈ 0.609 µM) in [8], 2 µg/mL (≈ 4.87 µM) in series [9] and 2 µg/mL (≈ 4.87 µM) in [10].

The melting point is the temperature of the solid-liquid transition.

The record behind these values is patent US7141583B2, “Oxazolidinone derivatives with antibiotic activity” (AstraZeneca AB, priority 2000, dated 2006).
